Consider 23 molecules from US12479827B2, “Heteroaromatic carboxamide derivatives as plasma kallikrein inhibitors” (Boehringer Ingelheim International GmbH, priority 2020, dated 2025).

The target in one assay is T1, Human PKK (Homo sapiens, UniProt P03952).
T1 construct: purchased Enzyme Research Laboratories
The assay is described as follows: Inhibition of PKK using an endpoint assay (human PKK). It counts as biochemical. Conditions: fluorogenic substrate H-Pro-Phe-Arg-AMC, 1 h room temperature, method names human or rat PKK, table does not say which. The method in brief: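 Human PKK inhibition measured in 100 mM Tris, 150 mM NaCl, pH 7.8, 0.1% BSA, 0.05% Tween20, 1% DMSO. Endpoint format: reaction stopped with PPACK II at 1 μM final, fluorescence read at 355 nm excitation/460 nm emission.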

For assay [1], the target named is T2, PKK in kaolin activated human platelet poor plasma (Homo sapiens, UniProt P03952).
T2 construct: Platelet poor plasma (PPP) obtained from human wholeblood; from tissue
T2 sequence (P03952 391-638 limits assumed): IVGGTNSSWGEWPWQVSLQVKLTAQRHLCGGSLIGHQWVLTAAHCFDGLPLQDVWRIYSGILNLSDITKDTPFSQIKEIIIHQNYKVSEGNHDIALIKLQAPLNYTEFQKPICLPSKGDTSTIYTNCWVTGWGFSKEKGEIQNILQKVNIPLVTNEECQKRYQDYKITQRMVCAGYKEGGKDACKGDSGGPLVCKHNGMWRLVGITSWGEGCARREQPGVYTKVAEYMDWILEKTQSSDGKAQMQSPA
T2 sequence (P03952 20-390 limits assumed): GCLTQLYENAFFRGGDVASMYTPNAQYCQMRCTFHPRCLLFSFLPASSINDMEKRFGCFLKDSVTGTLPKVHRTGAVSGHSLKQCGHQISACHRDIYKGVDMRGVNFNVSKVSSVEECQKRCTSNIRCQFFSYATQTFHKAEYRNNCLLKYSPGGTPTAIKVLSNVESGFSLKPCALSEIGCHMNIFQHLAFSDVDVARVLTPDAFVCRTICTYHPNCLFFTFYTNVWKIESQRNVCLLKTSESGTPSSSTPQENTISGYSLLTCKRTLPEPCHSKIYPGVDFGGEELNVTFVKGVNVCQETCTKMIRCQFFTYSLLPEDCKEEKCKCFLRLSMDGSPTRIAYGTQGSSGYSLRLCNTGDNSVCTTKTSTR
Briefly: Inhibition of PKK in kaolin activated human PPP.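 Note: readout is the rate of fluorogenic substrate cleavage in rfu per min.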 It counts as biochemical. The note with it: 25-750 μg/mL kaolin, global fit, text b200 calls the values IC90. As for the experimental part:
Platelet poor plasma (PPP) obtained from human wholeblood, anticoagulated with Na-Citrate, is incubated with various concentrations of the test compound together with either 25, 75, 250, or 750 μg/mL kaolin in assay buffer for 20 min at 37° C. such that for each kaolin dose used a concentration response is obtained for the test compound.

T1 sequence (P03952 20-390 limits assumed): as above
T1 sequence (P03952 391-638 limits assumed): as the sequence (P03952 391-638 limits assumed) above

Consider `Cn1cnc2c1CC[C@H]2NC(=O)c1cn(Cc2ccc(N3CC4C(C3)C4(F)F)nc2CO)nn1` (stereo partly drawn) [Example 50, 1-[(6-{6,6-Difluoro-3-azabicyclo[3.1.0]hexan-3-yl}-2-(hydroxymethyl)pyridin-3-yl)methyl]-N-[(4R)-1-methyl-1H,4H,5H,6H-cyclopenta[d]-imidazol-4-yl]-1H-1,2,3-triazole-4-carboxamide], for which the IC50 – broadly, the concentration at which inhibition is half-maximal – stood at 1.7 nM at Human PKK and 110 nM in assay [1].

Regarding `Cc1nc(N2CC3CC3C2)ncc1Cn1cc(C(=O)N[C@@H]2CCc3c2ncn3C)c2cncnc21` (stereo partly drawn) [Example 174, 7-[(2-{3-Azabicyclo[3.1.0]hexan-3-yl}-4-methylpyrimidin-5-yl)methyl]-N-[(4R)-1-methyl-1H,4H,5H,6H-cyclopenta[d]imidazol-4-yl]-7H-pyrrolo[2,3-d]pyrimidine-5-carboxamide], the IC50 against Human PKK is 1.9 nM; in assay [1], 1430 nM.

`Cn1cnc2c1CC[C@H]2NC(=O)c1cn(Cc2ccc(N3CC4CC4C3)cn2)nn1` (stereo partly drawn) [Example 8, 1-[(5-{3-Azabicyclo[3.1.0]hexan-3-yl}pyridin-2-yl)methyl]-N-[(4R)-1-methyl-1H,4H,5H,6H-cyclopenta[d]imidazol-4-yl]-1H-1,2,3-triazole-4-carboxamide]: the IC50 against Human PKK is 2.3 nM; in assay [1] it was 352 nM.

For `Cn1cnc2c1CC[C@H]2NC(=O)c1cn(Cc2ccc(N3CC4C(C3)C4(F)F)nc2Cl)cn1` (stereo partly drawn) [Example 57, 1-[(2-Chloro-6-{6,6-difluoro-3-azabicyclo[3.1.0]-hexan-3-yl}pyridin-3-yl)methyl]-N-[(4R)-1-methyl-1H,4H,5H,6H-cyclopenta[d]imidazol-4-yl]-1H-imidazole-4-carboxamide], the IC50 is 0.6 nM against Human PKK and 166 nM in assay [1].

For `COCc1nc(N2CC3C(C2)C3(F)F)ccc1Cn1cc(C(=O)N[C@@H]2CCc3c2ncn3C)nn1` (stereo partly drawn) [Example 55, 1-[(6-{6,6-Difluoro-3-azabicyclo[3.1.0]hexan-3-yl}-2-(methoxymethyl)pyridin-3-yl)methyl]-N-[(4R)-1-methyl-1H,4H,5H,6H-cyclopenta[d]-imidazol-4-yl]-1H-1,2,3-triazole-4-carboxamide], the values for the IC50 (against Human PKK; in assay [1]) were 2.3 nM and 250 nM, respectively.

As for `Cn1cnc2c1CC[C@H]2NC(=O)c1cc(Cc2ccc(N3CC4CC4C3)nc2CO)no1` (stereo partly drawn) [Example 149, 3-[(6-{3-Azabicyclo[3.1.0]hexan-3-yl}-2-(hydroxymethyl)pyridin-3-yl)methyl]-N-[(4R)-1-methyl-1H,4H,5H,6H-cyclopenta[d]imidazol-4-yl]-1,2-oxazole-5-carboxamide], the figures for the IC50 (against Human PKK; in assay [1]) were 1.6 nM and 511 nM, respectively.

For `CCn1nc(Cc2ccc(N3CC4CC4C3)nc2C)cc1C(=O)N[C@@H]1CCc2c1ncn2C` (stereo partly drawn) [Example 164, 3-[(6-{3-Azabicyclo[3.1.0]hexan-3-yl}-2-methylpyridin-3-yl)methyl]-1-ethyl-N-[(4R)-1-methyl-1H,4H,5H,6H-cyclopenta[d]imidazol-4-yl]-1H-pyrazole-5-carboxamide], the IC50 is 1.8 nM against Human PKK and 443 nM in assay [1].

Regarding `Cn1cnc2c1CC[C@H]2NC(=O)c1cn(Cc2ccc(N3CC4C(C3)C4(F)F)cc2Cl)cn1` (stereo partly drawn) [Example 211, 1-[(2-chloro-4-{6,6-difluoro-3-azabicyclo-[3.1.0]hexan-3-yl}phenyl)methyl]-N-[(4R)-1-methyl-1H,4H,5H,6H-cyclopenta[d]imidazol-4-yl]-1H-imidazole-4-carboxamide], the IC50 at Human PKK is 0.8 nM; in assay [1] it was 590 nM.

Take `CCc1nc(N2CC3(CC3)C2)ccc1Cn1cnc(C(=O)N[C@@H]2CCc3c2ncn3C)c1` [Example 37, 1-[(6-{5-Azaspiro[2.3]hexan-5-yl}-2-ethylpyridin-3-yl)methyl]-N-[(4R)-1-methyl-1H,4H,5H,6H-cyclopenta[d]imidazol-4-yl]-1H-imidazole-4-carboxamide]: the results for the IC50 (on Human PKK; in assay [1]) were 0.9 nM and 125 nM, respectively.

Regarding `Cc1nc(N2CC3C(C2)C3(F)F)ccc1Cc1ncc(C(=O)N[C@@H]2CCc3c2ncn3C)s1` (stereo partly drawn) [Example 188, 2-[(6-{6,6-Difluoro-3-azabicyclo[3.1.0]hexan-3-yl}-2-methylpyridin-3-yl)methyl]-N-[(4R)-1-methyl-1H,4H,5H,6H-cyclopenta[d]imidazol-4-yl]-1,3-thiazole-5-carboxamide], the IC50 against Human PKK turned out to be 19.8 nM; in assay [1], 1500 nM.

Regarding `Cn1cnc2c1CC[C@H]2NC(=O)c1cn(Cc2ccc(N3CC4(CC4)C3)nc2Cl)cn1` [Example 21, 1-[(6-{5-Azaspiro[2.3]hexan-5-yl}-2-chloropyridin-3-yl)methyl]-N-[(4R)-1-methyl-1H,4H,5H,6H-cyclopenta[d]imidazol-4-yl]-1H-imidazole-4-carboxamide], the IC50 on Human PKK turned out to be 0.9 nM; in assay [1], 325 nM.

Take `CC(O)c1nc(N2CC3C(C2)C3(F)F)ccc1Cn1cc(C(=O)N[C@@H]2CCc3c2ncn3C)nn1` (stereo partly drawn) [Example 215, 1-[(6-{6,6-Difluoro-3-azabicyclo[3.1.0]hexan-3-yl}-2-(1-hydroxyethyl)pyridin-3-yl)methyl]-N-[(4R)-1-methyl-1H,4H,5H,6H-cyclopenta[d]imidazol-4-yl]-1H-1,2,3-triazole-4-carboxamide]: the IC50 stood at 0.7 nM against Human PKK and 194 nM in assay [1].

In the case of `Cn1cnc2c1CC[C@H]2NC(=O)c1cnn(Cc2ccc(N3CC4C(C3)C4(F)F)nc2C2CCC2)c1` (stereo partly drawn) [Example 67, 1-[(2-Cydobutyl-6-{6,6-difluoro-3-azabicyclo[3.1.0]hexan-3-yl}pyridin-3-yl)methyl]-N-[(4R)-1-methyl-1H,4H,5H,6H-cyclopenta[d]imidazol-4-yl]-1H-pyrazole-4-carboxamide], the results for the IC50 (on Human PKK; in assay [1]) were 3.1 nM and 635 nM, respectively.

Turning to `Cn1cnc2c1CC[C@H]2NC(=O)c1cn(Cc2ccc(N3CC4CC4C3)cc2C#N)cn1` (stereo partly drawn) [Example 206, 1-[(4-{3-azabicyclo[3.1.0]hexan-3-yl}-2-cyanophenyl)methyl]-N-[(4R)-1-methyl-1H,4H,5H,6H-cyclopenta[d]imidazol-4-yl]-1H-imidazole-4-carboxamide], the IC50 was 0.4 nM at Human PKK and 138 nM in assay [1].

In the case of `Cn1cnc2c1CC[C@H]2NC(=O)c1cnn(Cc2ccc(N3CC4(CC4)C3)nc2)c1` [Example 73, 1-[(6-{5-Azaspiro[2.3]hexan-5-yl}pyridin-3-yl)-methyl]-N-[(4R)-1-methyl-1H,4H,5H,6H-cyclopenta[d]imidazol-4-yl]-1H-pyrazole-4-carboxamide], the IC50 on Human PKK is 9.6 nM; in assay [1] it was 498 nM.

`Cn1cnc2c1CC[C@H]2NC(=O)c1cc(Cc2ccc(N3CC4CC4C3)nc2Cl)no1` (stereo partly drawn) [Example 148, 3-[(6-{3-Azabicyclo[3.1.0]hexan-3-yl}-2-chloropyridin-3-yl)methyl]-N-[(4R)-1-methyl-1H,4H,5H,6H-cyclopenta[d]imidazol-4-yl]-1,2-oxazole-5-carboxamide]: the IC50 at Human PKK amounted to 1.4 nM; in assay [1], 985 nM.

On to `COCc1nc(N2CC3CC3C2)ccc1Cn1cnc(C(=O)N[C@@H]2CCc3c2ncn3C)c1` (stereo partly drawn) [Example 180, 1-[(6-{3-Azabicyclo[3.1.0]hexan-3-yl}-2-(methoxymethyl)pyridin-3-yl)methyl]-N-[(4R)-1-methyl-1H,4H,5H,6H-cyclopenta[d]imidazol-4-yl]-1H-imidazole-4-carboxamide], for which the IC50 against Human PKK was 2.6 nM; in assay [1] it was 207 nM.

Regarding `COCc1nc(N2CC3C(C2)C3(F)F)ccc1Cn1cc(C(=O)N[C@@H]2CCc3c2ncn3C)cn1` (stereo partly drawn) [Example 2, 1-[(6-{6,6-Difluoro-3-azabicyclo[3.1.0]hexan-3-yl}-2-(methoxymethyl)pyridin-3-yl)methyl]-N-[(4R)-1-methyl-1H,4H,5H,6H-cyclopenta[d]-imidazol-4-yl]-1H-pyrazole-4-carboxamide], the 50% inhibitory concentration (IC50) against Human PKK was 3.1 nM; in assay [1] it was 253 nM.

As to `Cn1cnc2c1CC[C@H]2NC(=O)c1cc(Cc2ccc(N3CC4CC4C3)nc2)no1` (stereo partly drawn) [Example 151, 3-[(6-{3-Azabicyclo[3.1.0]hexan-3-yl}pyridin-3-yl)methyl]-N-[(4R)-1-methyl-1H,4H,5H,6H-cyclopenta[d]imidazol-4-yl]-1,2-oxazole-5-carboxamide], the IC50 against Human PKK was 3.6 nM; in assay [1], 1140 nM.

Regarding `Cn1cnc2c1CC[C@H]2NC(=O)c1cn(Cc2ccc(N3CC4C(C3)C4(F)F)nc2CO)cn1` (stereo partly shown) [Example 96], the IC50 against Human PKK was 1.5 nM; in assay [1], 134 nM.

Consider `Cn1cnc2c1CC[C@H]2NC(=O)c1cn(Cc2ccc(N3CC4CC4C3)nc2Br)cn1` (stereo partly drawn) [Example 39, 1-[(6-{3-Azabicyclo[3.1.0]hexan-3-yl}-2-bromopyridin-3-yl)methyl]-N-[(4R)-1-methyl-1H,4H,5H,6H-cyclopenta[d]imidazol-4-yl]-1H-imidazole-4-carboxamide], for which the IC50 was 0.7 nM on Human PKK and 380 nM in assay [1].

On to `Cc1nc(N2CC3C(C2)C3(F)F)ccc1Cc1cc(C(=O)N[C@@H]2CCc3c2ncn3C)on1` (stereo partly drawn) [Example 152, 3-[(6-{6,6-Difluoro-3-azabicyclo[3.1.0]hexan-3-yl}-2-methylpyridin-3-yl)methyl]-N-[(4R)-1-methyl-1H,4H,5H,6H-cyclopenta[d]imidazol-4-yl]-1,2-oxazole-5-carboxamide], for which the IC50 was 1.2 nM against Human PKK and 430 nM in assay [1].

Turning to `Cn1cnc2c1CC[C@H]2NC(=O)c1cc(Cc2ccc(N3CC4C(C3)C4(F)F)nc2Cl)no1` (stereo partly drawn) [Example 150, 3-[(2-Chloro-6-{6,6-difluoro-3-azabicyclo[3.1.0]hexan-3-yl}pyridin-3-yl)methyl]-N-[(4R)-1-methyl-1H,4H,5H,6H-cyclopenta-[d]imidazol-4-yl]-1,2-oxazole-5-carboxamide], the results for the IC50 (against Human PKK; in assay [1]) were 1 nM and 373 nM, respectively.
